These are literature values, as cited in patent US8088760B2, “Benzoxazole carboxamide inhibitors of poly(ADP-ribose)polymerase (PARP)” (BioMarin Pharmaceutical Inc., priority 2008, dated 2012).

For series [1], the system named is BRCA2-deficient cell line V-C8. The conditions noted are these: BRCA2-deficient cell line V-C8 compared with the BRCA2 wild type control.
The target of a further series is PARP-1 (Homo sapiens, UniProt P09874). The conditions noted are these: PARP-1 inhibitor.
For another series, the system named is CAPAN-1 cells. The conditions noted are these: CAPAN-1 cells maintained in DMEM supplemented with FCS (20% v/v), glutamine and antibiotics.

PARP-1, sequence (P09874 whole entry, species assumed): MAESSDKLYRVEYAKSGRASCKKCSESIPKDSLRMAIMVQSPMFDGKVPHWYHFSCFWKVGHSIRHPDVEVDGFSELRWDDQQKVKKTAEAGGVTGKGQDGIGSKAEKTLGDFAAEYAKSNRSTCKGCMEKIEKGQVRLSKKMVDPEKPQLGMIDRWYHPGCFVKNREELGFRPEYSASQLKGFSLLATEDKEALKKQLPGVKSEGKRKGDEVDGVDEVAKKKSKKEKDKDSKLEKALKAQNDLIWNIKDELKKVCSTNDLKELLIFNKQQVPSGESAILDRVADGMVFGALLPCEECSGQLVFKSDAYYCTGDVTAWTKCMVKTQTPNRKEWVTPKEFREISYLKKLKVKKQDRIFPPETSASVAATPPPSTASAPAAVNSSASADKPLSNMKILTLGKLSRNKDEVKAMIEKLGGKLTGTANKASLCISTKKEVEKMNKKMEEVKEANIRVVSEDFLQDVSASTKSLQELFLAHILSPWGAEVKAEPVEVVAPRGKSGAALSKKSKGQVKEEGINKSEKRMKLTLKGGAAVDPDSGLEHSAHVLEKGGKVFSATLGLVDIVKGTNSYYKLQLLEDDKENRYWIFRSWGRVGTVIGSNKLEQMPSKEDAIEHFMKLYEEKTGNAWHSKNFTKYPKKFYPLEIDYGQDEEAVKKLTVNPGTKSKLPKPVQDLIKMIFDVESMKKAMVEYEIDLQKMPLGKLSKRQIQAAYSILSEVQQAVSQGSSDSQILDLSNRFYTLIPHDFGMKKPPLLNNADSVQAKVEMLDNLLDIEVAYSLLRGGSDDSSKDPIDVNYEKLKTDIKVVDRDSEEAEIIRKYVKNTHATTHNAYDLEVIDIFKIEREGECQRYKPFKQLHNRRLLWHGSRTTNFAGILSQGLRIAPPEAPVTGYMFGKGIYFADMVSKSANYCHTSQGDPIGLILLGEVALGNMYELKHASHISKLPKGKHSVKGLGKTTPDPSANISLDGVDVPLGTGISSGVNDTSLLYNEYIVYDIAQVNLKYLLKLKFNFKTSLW

Regarding `CN(C)Cc1ccc(-c2nc3cccc4c3n2CCNC4=O)cc1` [AG14361], in series [1], the “sensitivity in clonogenic survival assay” value is on record as “exhibited sensitivity”. Besides, at PARP-1, the Ki is 5 nM.
Turning to `O=C1CCC(=O)N1c1cc(Cc2n[nH]c(=O)c3ccccc23)ccc1F` [KU0058684], the “in vivo efficacy in blocking tumor growth” value in the series on BRCA2-deficient tumors is “in vivo efficacy in blocking the growth of BRCA2-deficient tumors”. For the same compound, the “sensitivity in clonogenic survival assay” value in the series on CAPAN-1 cells is “showing sensitivity to PARP inhibition”.
On to `Cc1nc2c(O)cccc2c(=O)[nH]1` [NU1025], for which the “sensitivity in clonogenic survival assay” value in series [1] was “exhibited sensitivity”. Besides, on PARP-1, the Ki was 50 nM.

Broadly, the Ki is a measure of affinity in units of concentration, obtained from inhibition or displacement.
